Each structure is given as a SMILES string. A value given as a limit tells only on which side of the number the result lay.

The target in the assay is Ryanodine receptor 1 (Oryctolagus cuniculus, UniProt P11716). The assay can be described thus: Displacement of [3H]ryanodine from Ry1R/FKBP12 receptor complex in rabbit sarcoplasmic reticulum.
Chain of Ryanodine receptor 1 (P11716 whole entry): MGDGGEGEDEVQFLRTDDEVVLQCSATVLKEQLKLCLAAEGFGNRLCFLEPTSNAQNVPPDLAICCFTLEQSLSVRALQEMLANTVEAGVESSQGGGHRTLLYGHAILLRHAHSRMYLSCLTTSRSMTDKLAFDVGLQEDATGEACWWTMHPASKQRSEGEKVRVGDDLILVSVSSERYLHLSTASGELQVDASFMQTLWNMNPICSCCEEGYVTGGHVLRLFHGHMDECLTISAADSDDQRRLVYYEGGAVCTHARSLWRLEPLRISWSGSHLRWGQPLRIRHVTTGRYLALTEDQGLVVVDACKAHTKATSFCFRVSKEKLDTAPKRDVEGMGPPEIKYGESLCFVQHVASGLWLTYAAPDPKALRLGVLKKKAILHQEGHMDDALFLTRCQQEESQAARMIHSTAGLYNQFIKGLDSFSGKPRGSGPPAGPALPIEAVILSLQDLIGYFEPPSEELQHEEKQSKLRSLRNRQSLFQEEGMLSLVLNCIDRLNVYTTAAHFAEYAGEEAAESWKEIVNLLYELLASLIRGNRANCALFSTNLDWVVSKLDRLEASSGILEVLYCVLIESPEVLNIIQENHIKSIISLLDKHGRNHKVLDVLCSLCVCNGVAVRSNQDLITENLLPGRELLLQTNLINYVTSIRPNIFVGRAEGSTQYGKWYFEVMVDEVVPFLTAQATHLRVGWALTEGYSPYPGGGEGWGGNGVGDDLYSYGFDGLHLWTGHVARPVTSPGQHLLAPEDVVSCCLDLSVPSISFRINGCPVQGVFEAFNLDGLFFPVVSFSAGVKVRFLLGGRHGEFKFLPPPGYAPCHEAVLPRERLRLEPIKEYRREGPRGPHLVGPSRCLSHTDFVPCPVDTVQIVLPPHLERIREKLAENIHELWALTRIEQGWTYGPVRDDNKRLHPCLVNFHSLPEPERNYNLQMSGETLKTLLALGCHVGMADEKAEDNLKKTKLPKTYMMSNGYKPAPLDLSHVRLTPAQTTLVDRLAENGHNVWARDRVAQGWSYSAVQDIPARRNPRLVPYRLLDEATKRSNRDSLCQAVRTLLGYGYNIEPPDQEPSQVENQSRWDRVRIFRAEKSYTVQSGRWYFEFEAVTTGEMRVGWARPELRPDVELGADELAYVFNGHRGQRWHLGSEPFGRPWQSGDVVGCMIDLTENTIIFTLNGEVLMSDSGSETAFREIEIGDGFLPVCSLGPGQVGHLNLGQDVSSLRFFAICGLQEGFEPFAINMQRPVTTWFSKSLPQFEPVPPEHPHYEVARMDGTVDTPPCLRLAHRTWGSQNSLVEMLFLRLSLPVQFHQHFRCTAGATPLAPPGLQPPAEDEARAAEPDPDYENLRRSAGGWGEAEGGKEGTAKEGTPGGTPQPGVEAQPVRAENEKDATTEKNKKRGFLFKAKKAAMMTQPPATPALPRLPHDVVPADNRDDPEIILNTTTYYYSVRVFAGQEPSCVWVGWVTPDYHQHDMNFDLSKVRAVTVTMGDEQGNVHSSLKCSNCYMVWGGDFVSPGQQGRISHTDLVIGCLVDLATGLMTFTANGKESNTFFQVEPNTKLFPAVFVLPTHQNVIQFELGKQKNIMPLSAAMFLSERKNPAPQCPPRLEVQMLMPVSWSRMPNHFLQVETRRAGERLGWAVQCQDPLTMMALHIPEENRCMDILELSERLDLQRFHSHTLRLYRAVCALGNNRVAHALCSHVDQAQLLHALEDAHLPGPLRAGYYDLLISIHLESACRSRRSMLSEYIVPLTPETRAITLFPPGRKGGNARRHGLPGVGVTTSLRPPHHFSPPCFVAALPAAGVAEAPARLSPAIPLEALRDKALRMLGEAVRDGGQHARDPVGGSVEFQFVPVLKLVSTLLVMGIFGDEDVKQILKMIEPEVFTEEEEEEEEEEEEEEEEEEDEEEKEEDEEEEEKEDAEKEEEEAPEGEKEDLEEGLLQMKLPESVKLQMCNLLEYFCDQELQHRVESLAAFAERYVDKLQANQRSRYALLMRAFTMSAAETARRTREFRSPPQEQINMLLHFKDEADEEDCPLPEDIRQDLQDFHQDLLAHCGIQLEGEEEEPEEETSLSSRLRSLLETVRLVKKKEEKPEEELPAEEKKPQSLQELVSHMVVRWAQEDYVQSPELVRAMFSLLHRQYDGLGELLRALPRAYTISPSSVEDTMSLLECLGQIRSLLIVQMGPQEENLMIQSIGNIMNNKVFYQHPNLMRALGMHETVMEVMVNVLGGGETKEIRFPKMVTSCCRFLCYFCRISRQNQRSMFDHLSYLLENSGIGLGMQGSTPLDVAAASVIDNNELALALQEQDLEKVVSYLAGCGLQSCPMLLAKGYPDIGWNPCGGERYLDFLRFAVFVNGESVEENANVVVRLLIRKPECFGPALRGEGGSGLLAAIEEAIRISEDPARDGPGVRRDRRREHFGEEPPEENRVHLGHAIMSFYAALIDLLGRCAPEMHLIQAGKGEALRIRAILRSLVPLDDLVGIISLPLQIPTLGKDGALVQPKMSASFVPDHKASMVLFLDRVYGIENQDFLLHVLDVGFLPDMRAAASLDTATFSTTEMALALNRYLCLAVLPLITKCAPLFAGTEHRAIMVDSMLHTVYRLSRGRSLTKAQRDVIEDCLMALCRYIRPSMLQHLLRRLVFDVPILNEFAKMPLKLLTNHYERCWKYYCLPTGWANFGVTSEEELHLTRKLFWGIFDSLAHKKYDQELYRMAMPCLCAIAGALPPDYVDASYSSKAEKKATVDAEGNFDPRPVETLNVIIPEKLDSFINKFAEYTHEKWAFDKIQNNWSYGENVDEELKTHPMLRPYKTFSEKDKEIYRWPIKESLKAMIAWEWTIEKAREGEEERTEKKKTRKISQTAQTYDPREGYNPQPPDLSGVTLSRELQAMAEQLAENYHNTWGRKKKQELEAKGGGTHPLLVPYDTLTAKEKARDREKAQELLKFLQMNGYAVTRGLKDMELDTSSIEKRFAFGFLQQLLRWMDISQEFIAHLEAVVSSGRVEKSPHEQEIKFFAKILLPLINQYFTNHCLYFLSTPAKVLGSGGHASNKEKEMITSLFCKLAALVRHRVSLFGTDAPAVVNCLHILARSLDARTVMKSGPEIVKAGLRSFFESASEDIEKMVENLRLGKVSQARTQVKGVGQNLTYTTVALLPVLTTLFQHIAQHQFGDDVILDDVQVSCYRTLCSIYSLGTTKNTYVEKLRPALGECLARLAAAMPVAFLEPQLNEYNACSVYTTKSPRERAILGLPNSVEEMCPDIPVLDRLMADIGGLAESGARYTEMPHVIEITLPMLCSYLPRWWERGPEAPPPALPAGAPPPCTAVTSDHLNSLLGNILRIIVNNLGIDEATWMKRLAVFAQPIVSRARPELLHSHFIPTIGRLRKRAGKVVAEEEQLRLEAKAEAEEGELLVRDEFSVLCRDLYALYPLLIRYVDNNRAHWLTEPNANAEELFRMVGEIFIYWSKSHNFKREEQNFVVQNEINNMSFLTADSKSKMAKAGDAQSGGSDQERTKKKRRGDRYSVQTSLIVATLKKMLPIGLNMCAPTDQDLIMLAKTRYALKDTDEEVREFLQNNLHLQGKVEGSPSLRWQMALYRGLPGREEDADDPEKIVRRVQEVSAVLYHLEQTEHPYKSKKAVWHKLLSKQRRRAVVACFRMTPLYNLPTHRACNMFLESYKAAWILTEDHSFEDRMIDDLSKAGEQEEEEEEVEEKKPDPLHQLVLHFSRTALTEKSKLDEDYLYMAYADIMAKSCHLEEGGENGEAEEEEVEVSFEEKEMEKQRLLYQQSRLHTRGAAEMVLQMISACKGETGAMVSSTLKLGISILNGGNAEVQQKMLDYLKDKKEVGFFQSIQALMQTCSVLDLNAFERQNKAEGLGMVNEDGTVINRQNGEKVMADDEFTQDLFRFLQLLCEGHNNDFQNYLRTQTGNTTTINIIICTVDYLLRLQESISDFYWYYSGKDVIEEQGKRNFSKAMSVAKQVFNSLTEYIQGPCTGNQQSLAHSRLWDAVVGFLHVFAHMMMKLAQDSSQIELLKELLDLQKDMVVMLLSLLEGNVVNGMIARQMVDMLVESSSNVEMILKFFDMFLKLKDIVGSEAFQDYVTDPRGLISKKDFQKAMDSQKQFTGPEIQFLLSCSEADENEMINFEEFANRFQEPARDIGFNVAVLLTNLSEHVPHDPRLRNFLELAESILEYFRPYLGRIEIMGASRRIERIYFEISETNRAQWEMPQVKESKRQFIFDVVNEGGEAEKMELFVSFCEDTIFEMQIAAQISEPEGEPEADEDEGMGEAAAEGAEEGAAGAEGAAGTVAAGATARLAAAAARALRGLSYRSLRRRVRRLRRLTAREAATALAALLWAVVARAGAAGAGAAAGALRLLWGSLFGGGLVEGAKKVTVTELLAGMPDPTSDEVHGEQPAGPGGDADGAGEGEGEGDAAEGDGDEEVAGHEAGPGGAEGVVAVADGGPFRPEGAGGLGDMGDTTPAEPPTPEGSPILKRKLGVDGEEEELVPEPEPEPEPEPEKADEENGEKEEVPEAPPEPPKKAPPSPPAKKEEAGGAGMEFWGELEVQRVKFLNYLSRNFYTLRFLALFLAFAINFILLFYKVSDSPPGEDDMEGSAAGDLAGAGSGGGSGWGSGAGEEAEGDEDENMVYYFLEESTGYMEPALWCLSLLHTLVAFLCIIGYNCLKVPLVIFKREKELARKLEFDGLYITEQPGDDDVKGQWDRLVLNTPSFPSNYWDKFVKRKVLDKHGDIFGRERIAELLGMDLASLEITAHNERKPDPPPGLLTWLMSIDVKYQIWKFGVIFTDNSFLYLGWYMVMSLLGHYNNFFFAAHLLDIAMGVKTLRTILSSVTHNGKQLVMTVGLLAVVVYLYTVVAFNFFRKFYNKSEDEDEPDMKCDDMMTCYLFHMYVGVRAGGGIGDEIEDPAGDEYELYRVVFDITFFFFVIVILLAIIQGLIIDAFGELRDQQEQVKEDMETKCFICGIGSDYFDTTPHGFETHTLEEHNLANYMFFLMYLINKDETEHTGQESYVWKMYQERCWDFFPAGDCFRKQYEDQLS

Usually EC50 stands for the concentration needed to bring the measured effect to its halfway point. High values mean lower potency in that assay, low ones higher potency in that assay. As to `O=C1NCCc2ccc(c(Br)c2)Oc2cc(cc(Br)c2O)CCNC(=O)/C(=N/O)Cc2cc(Br)c(O)c(c2)Oc2c(Br)cc(cc2Br)C/C1=N\O` [BASTADIN 19], the EC50 is greater than 100 µM.

As for `O=C1N/C=C/c2ccc(c(Br)c2)Oc2cc(cc(Br)c2OS(=O)(=O)O)CCNC(=O)/C(=N/O)Cc2ccc(c(Br)c2)Oc2cc(cc(Br)c2OS(=O)(=O)O)C/C1=N\O`, a half-maximal effect (EC50) was put at 13.6 µM.
